Assay results taken from ChEMBL document CHEMBL5608163, “Structure modification of anoplin for fighting resistant bacteria” (Eur J Med Chem, 2024).
Values after ≈ are worked out from the molar mass of the structure shown. Square brackets hold non-standard residues; d marks the D form. Peptide text beside a SMILES is read from it. 2Nal = N[C@@H](Cc1ccc2ccccc2c1)C(=O)O; hIle = CC[C@H](C)C[C@H](N)C(=O)O; Cha = N[C@@H](CC1CCCCC1)C(=O)O

Columns and labels:
Pseudomonas aeruginosa [1] = assay: Antibacterial activity against Pseudomonas aeruginosa ATCC 27853 assessed as reduction in microbial growth incubated for 16 to 20 hrs by CLSI protocol based Muller Hinton broth assay; assay type: functional; settings: time 16-20 hrs
Staphylococcus aureus [2] = assay: Antibacterial activity against methicillin-resistant Staphylococcus aureus ATCC 33591 assessed as reduction in bacterial growth incubated for 18 hrs by agar dilution method; assay type: functional
Enterococcus faecium = assay: Antibacterial activity against vancomycin resistant Enterococcus faecium ATCC 700221 assessed as inhibition of bacterial growth incubated for 48 hrs by CLSI-based broth microdilution assay; assay type: functional
Escherichia coli [3] = assay: Antibacterial activity against Escherichia coli ATCC 25922 assessed as reduction in microbial growth incubated for 16 to 20 hrs by CLSI protocol based Muller Hinton broth assay; assay type: functional; settings: time 16-20 hrs
[4] = Hemolytic activity in human RBC assessed as hemolysis measured after 24 hrs; assay type: toxicity, cell-based, Erythrocyte; settings: red blood cells
Staphylococcus aureus [5] = assay: Antibacterial activity against Staphylococcus aureus ATCC 25923 assessed as reduction in bacterial growth incubated for 18 to 20 hrs by Mueller Hinton broth dilution method; assay type: functional; settings: time 18-20 hrs
Bacillus subtilis = assay: Antibacterial activity against Bacillus subtilis ATCC 23857 assessed as reduction in bacterial growth incubated for 18 to 20 hrs by Mueller Hinton broth dilution method; assay type: functional; settings: time 18-20 hrs
Escherichia coli [6] = assay: Antibacterial activity against Escherichia coli ATCC 25922 assessed as reduction in bacterial growth incubated for 18 to 20 hrs by Mueller Hinton broth dilution method; assay type: functional; settings: time 18-20 hrs
Pseudomonas aeruginosa [7] = assay: Antibacterial activity against Pseudomonas aeruginosa ATCC 27853 assessed as reduction in bacterial growth incubated for 18 to 20 hrs by Mueller Hinton broth dilution method; assay type: functional; settings: time 18-20 hrs
Erythrocyte = assay: Hemolytic activity in mouse Red blood cells incubated for 1 hr by microplate reader assay; assay type: toxicity, cell-based; settings: erythrocyte, 1 h

SMILES: CC[C@H](C)C[C@H](NC(=O)[C@H](CCCNC(=N)N)NC(=O)[C@H](CCCCN)NC(=O)[C@H](CC(C)C)NC(=O)[C@H](CC(C)C)NC(=O)CN)C(=O)N[C@@H](CCCCN)C(=O)N[C@H](C(=O)N[C@@H](CC(C)C)C(=O)N[C@@H](CC1CCCCC1)C(N)=O)[C@@H](C)O (H-GLLKR[hIle]KTL[Cha]-NH2)
- MIC (Pseudomonas aeruginosa [1]): 28.4 µM
- MIC (Staphylococcus aureus [2]): 28.4 µM (≈ 34.3 µg/mL)
- MIC (Enterococcus faecium): 26.3 µM (≈ 31.8 µg/mL)
- MIC (Escherichia coli [3]): 12.5 µM
- HC50 at 24 h [4]: 317 µM

SMILES: CC[C@H](C)C[C@H](NC(=O)[C@H](CCCNC(=N)N)NC(=O)[C@H](CCCCN)NC(=O)[C@H](CC(C)C)NC(=O)[C@H](CC(C)C)NC(=O)CN)C(=O)N[C@@H](CCCCN)C(=O)N[C@H](C(=O)N[C@@H](Cc1ccc2ccccc2c1)C(=O)N[C@@H](CC(C)C)C(N)=O)[C@@H](C)O (H-GLLKR[hIle]KT[2Nal]L-NH2)
- MIC (Pseudomonas aeruginosa [1]): 28.4 µM
- MIC (Staphylococcus aureus [2]): 28.4 µM (≈ 35.5 µg/mL)
- MIC (Enterococcus faecium): 8.8 µM (≈ 11 µg/mL)
- MIC (Escherichia coli [3]): 15.8 µM
- HC50 at 24 h [4]: 149 µM

SMILES: CC[C@H](C)C[C@H](NC(=O)[C@H](CCCNC(=N)N)NC(=O)[C@H](CCCCN)NC(=O)[C@H](CC(C)C)NC(=O)[C@H](CC(C)C)NC(=O)CN)C(=O)N[C@@H](CCCCN)C(=O)N[C@H](C(=O)N[C@@H](CC1CCCCC1)C(=O)N[C@@H](CC(C)C)C(N)=O)[C@@H](C)O (H-GLLKR[hIle]KT[Cha]L-NH2)
- MIC (Pseudomonas aeruginosa [1]): 28.4 µM
- MIC (Staphylococcus aureus [2]): 47.4 µM (≈ 57.2 µg/mL)
- MIC (Enterococcus faecium): 28.4 µM (≈ 34.3 µg/mL)
- MIC (Escherichia coli [3]): 28.4 µM
- HC50 at 24 h [4]: 234 µM

SMILES: CC[C@H](C)[C@H](NC(=O)[C@H](Cc1c[nH]c2ccccc12)NC(=O)[C@H](CCCCN)NC(=O)[C@H](CC(C)C)NC(=O)[C@H](CC(C)C)NC(=O)CN)C(=O)N[C@@H](CCCCN)C(=O)N[C@@H](CCCCN)C(=O)N[C@@H](CC(C)C)C(=O)N[C@@H](CC(C)C)C(N)=O (H-GLLKWIKKLL-NH2)
- MIC (Pseudomonas aeruginosa [1]): 9.5 µM
- MIC (Staphylococcus aureus [2]): 2.5 µM (≈ 3.03 µg/mL)
- MIC (Enterococcus faecium): 3.2 µM (≈ 3.87 µg/mL)
- MIC (Escherichia coli [3]): 3.2 µM
- HC50 at 24 h [4]: 11.6 µM

SMILES: CC[C@H](C)[C@H](NC(=O)[C@H](CCCNC(=N)N)NC(=O)[C@H](CCCCN)NC(=O)[C@H](Cc1ccc2ccccc2c1)NC(=O)[C@H](CC(C)C)NC(=O)CN)C(=O)N[C@@H](CCCCN)C(=O)N[C@H](C(=O)N[C@@H](CC(C)C)C(=O)N[C@@H](CC(C)C)C(N)=O)[C@@H](C)O (H-GL[2Nal]KRIKTLL-NH2)
- MIC (Pseudomonas aeruginosa [1]): 9.5 µM
- MIC (Staphylococcus aureus [2]): 28.4 µM (≈ 35.1 µg/mL)
- MIC (Enterococcus faecium): 9.5 µM (≈ 11.8 µg/mL)
- MIC (Escherichia coli [3]): 28.4 µM
- HC50 at 24 h [4]: 172 µM

SMILES: CC[C@H](C)C[C@H](NC(=O)[C@H](CCCNC(=N)N)NC(=O)[C@H](CCCCN)NC(=O)[C@H](CC1CCCCC1)NC(=O)[C@H](CC(C)C)NC(=O)CN)C(=O)N[C@@H](CCCCN)C(=O)N[C@H](C(=O)N[C@@H](CC(C)C)C(=O)N[C@@H](CC(C)C)C(N)=O)[C@@H](C)O (H-GL[Cha]KR[hIle]KTLL-NH2)
- MIC (Pseudomonas aeruginosa [1]): 28.4 µM
- MIC (Staphylococcus aureus [2]): 28.4 µM (≈ 34.3 µg/mL)
- MIC (Enterococcus faecium): 28.4 µM (≈ 34.3 µg/mL)
- MIC (Escherichia coli [3]): 28.4 µM
- HC50 at 24 h [4]: 436 µM

SMILES: CC[C@H](C)[C@H](NC(=O)[C@H](CCCNC(=N)N)NC(=O)[C@H](CCCCN)NC(=O)[C@H](CC(C)C)NC(=O)[C@H](Cc1ccc2ccccc2c1)NC(=O)CN)C(=O)N[C@@H](CCCCN)C(=O)N[C@H](C(=O)N[C@@H](CC(C)C)C(=O)N[C@@H](CC(C)C)C(N)=O)[C@@H](C)O (H-G[2Nal]LKRIKTLL-NH2)
- MIC (Pseudomonas aeruginosa [1]): 9.5 µM
- MIC (Staphylococcus aureus [2]): 15.8 µM (≈ 19.6 µg/mL)
- MIC (Enterococcus faecium): 15.8 µM (≈ 19.6 µg/mL)
- MIC (Escherichia coli [3]): 15.8 µM
- HC50 at 24 h [4]: 52.8 µM

SMILES: CC[C@H](C)C[C@H](NC(=O)[C@H](CCCNC(=N)N)NC(=O)[C@H](CCCCN)NC(=O)[C@H](CC(C)C)NC(=O)[C@H](CC1CCCCC1)NC(=O)CN)C(=O)N[C@@H](CCCCN)C(=O)N[C@H](C(=O)N[C@@H](CC(C)C)C(=O)N[C@@H](CC(C)C)C(N)=O)[C@@H](C)O (H-G[Cha]LKR[hIle]KTLL-NH2)
- MIC (Pseudomonas aeruginosa [1]): 28.4 µM
- MIC (Staphylococcus aureus [2]): 85.3 µM (≈ 103 µg/mL)
- MIC (Enterococcus faecium): 15.8 µM (≈ 19.1 µg/mL)
- MIC (Escherichia coli [3]): 25 µM
- HC50 at 24 h [4]: 195 µM

SMILES: CC(C)C[C@@H](NC(=O)[C@@H](CC(C)C)NC(=O)[C@@H](CCCCN)NC(=O)[C@@H](CCCCN)NC(=O)[C@@H](Cc1c[nH]c2ccccc12)NC(=O)[C@@H](Cc1c[nH]c2ccccc12)NC(=O)[C@@H](CCCCN)NC(=O)[C@@H](CC(C)C)NC(=O)[C@@H](CC(C)C)NC(=O)[C@H](N)CCCCN)C(N)=O (H-[dK][dL][dL][dK][dW][dW][dK][dK][dL][dL]-NH2)
- MIC (Staphylococcus aureus [5]): 8 µM (≈ 10.8 µg/mL)
- MIC (Bacillus subtilis): 4 µM (≈ 5.42 µg/mL)
- MIC (Escherichia coli [6]): 64 µM (≈ 86.7 µg/mL)
- MIC (Pseudomonas aeruginosa [7]): 8 µM (≈ 10.8 µg/mL)
- HC10 (Erythrocyte): > 200 µM
